This data set is described as follows: Waters ACQUITY UPLC BEH C18, 100 × 2.1 mm, 1.7 µm, 40 °C, 0.3 to 0.4 mL/min, estimated dead time 0.63 min; A: water + 0.1% formic acid; B: methanol + 0.1% formic acid; gradient (min/%B) 0/0.5 0.1/0.5 10/80 10.1/99.5 12/99.5. To be noted: stereoisomer not certain.

Structures are written as SMILES.

As to `O=C(C=Cc1ccc(O)c(O)c1)NCCCCN(CCCNC(=O)C=Cc1ccc(O)cc1)C(=O)C=Cc1ccc(O)c(O)c1`, the LC retention time was 5 min. The figure for `O=c1cc(-c2ccc(O)cc2)oc2c(C3OC(CO)C(O)C(O)C3O)c(O)c(C3OCC(O)C(O)C3O)c(O)c12` (stereo not drawn) is 3.41 min; for `CC(C)CC1NC(=O)C2CCCN2C1=O` (stereo not drawn) it is 4.03 min. As to `CN1CCCCC1c1ccc(-c2cccnc2)nc1` (stereo not drawn), the LC retention time is 2.37 min.

Take `CC1(C(=O)O)CCC2(C)CCC3(C)C(=CCC4C5(C)CCC(OC6OC(C(=O)O)C(O)C(O)C6OC6OC(C(=O)O)C(O)C(O)C6O)C(C)(CO)C5CCC43C)C2C1` (stereo not drawn): the LC retention time is 6.15 min. On to `CCN1CC2(CO)CCC(OC)C34C5CC6C(OC)CC(O)(C5C6OC)C(O)(C(OC)C23)C14` (stereo not drawn), for which the LC retention time is 3.67 min. For the molecule `COc1ccc2c(c1O)-c1c(OC)c(OC)cc3c1C(C2)N(C)CC3` (stereo not drawn), the LC retention time was 3.92 min. `CC(C)CC(N)C(=O)NCC(=O)O` (stereo not drawn): the LC retention time was 2.08 min. For the molecule `C1CCC(C23CC(CC4CCCNC42)C2CCCCN2C3)NC1` (stereo not drawn), the LC retention time is 2.24 min.

`CC1CCC(C(C)C2CCC3C4CC(=O)C5CC(O)CCC5(C)C4CCC23C)=NC1` (stereo not drawn): the LC retention time was 4.95 min. The figure for `CS(=O)CCCCCCCC#N` (stereo not drawn) is 4.16 min.

As to `N#CC(OC1OC(COC2OC(CO)C(O)C(O)C2O)C(O)C(O)C1O)c1ccccc1` (stereo not drawn), the LC retention time was 3.32 min.

`COc1cc(CCN)ccc1O`: the LC retention time was 2.06 min. As for `COc1cc(C=CC(=O)O)cc(OC)c1`, the LC retention time was 6.26 min. The figure for `COc1cc(-c2cc(=O)c3c(O)cc(OC4OC(C(=O)O)C(O)C(O)C4O)cc3o2)cc(OC)c1OC1OC(CO)C(O)C(O)C1O` (stereo not drawn) is 4.05 min; for `COC1C(O)C(OC2C(OC3C(OC4CCC5(C)C(CCC6(C)C5CC=C5C7CC(C)(C)CC(O)C7(C)CCC56C)C4(C)CO)OC(C(=O)O)C(O)C3O)OC(C(=O)O)C(O)C2O)OC(CO)C1OC(C)=O` (stereo not drawn) it is 7.33 min; for `CC(CCC1(O)OC2CC3C4CC=C5CC(O)CCC5(C)C4CCC3(C)C2C1C)COC1OC(CO)C(O)C(O)C1O` (stereo not drawn) it is 6.58 min. For the molecule `CC1OC(OC2C(Oc3cc(O)c4c(c3)OC(c3ccc(O)cc3)CC4=O)OC(CO)C(O)C2O)C(O)C(O)C1O` (stereo not drawn), the LC retention time is 4.38 min. For `CC(CS)C(=O)N1CCCC1C(=O)O` (stereo not drawn), the LC retention time is 4.05 min. For the molecule `O=C(O)CC(=O)OCC1OC(Oc2c(-c3ccc(O)cc3)oc3cc(OC4OC(CO)C(O)C(O)C4O)cc(O)c3c2=O)C(O)C(O)C1O` (stereo not drawn), the LC retention time was 3.36 min. In the case of `CC(C)CC(N)C(=O)N1CCCC1C(=O)O` (stereo not drawn), the LC retention time was 2.72 min. Then `NCCCCNC(=O)C=Cc1ccc(O)cc1`, with 2.67 min. Regarding `O=C(OC1Cc2c(O)cc(O)cc2OC1c1cc(O)c(O)c(O)c1)c1cc(O)c(O)c(O)c1` (stereo not drawn), the LC retention time was 3.46 min. The figure for `CC=C1CN2C3CC1C(CO)C2Cc1c3[nH]c2ccccc12` (stereo not drawn) is 3.58 min.

`O=C(C=Cc1ccc(O)cc1)OC1C(Oc2c(-c3ccc(O)cc3)oc3cc(O)cc(O)c3c2=O)OC(CO)C(O)C1O` (stereo not drawn): the LC retention time is 5.32 min. The figure for `COc1cc(C2Oc3c(O)cc(C4Oc5cc(O)cc(O)c5C(=O)C4O)cc3C2CO)ccc1O` (stereo not drawn) is 4.96 min. The figure for `NCCCCNC(=O)C=Cc1ccccc1` is 3.7 min; for `O=C(O)C1CCCN1C(=O)C1CCCN1` (stereo not drawn) it is 1.82 min; for `COC(=O)C1=C2Nc3ccccc3C23CCN2CCC1C(C(C)OC)C23` (stereo not drawn) it is 4.55 min. Then `CC1=C(O)C(=O)CC(OC2CC(C)(C)CC3C4=CCC5C6(C)CCC(OC7OC(C(=O)O)C(O)C(O)C7OC7OC(C(=O)O)C(O)C(O)C7OC7OC(C)C(O)C(O)C7O)C(C)(CO)C6CCC5(C)C4(C)CCC23C)O1` (stereo not drawn), with 7.66 min; and `CS(=O)CCCCCCC#N` (stereo not drawn), with 3.43 min. Turning to `CC1OC(OCC2OC(Oc3cc(O)c4c(c3)OC(c3ccc(O)c(O)c3)CC4=O)C(O)C(O)C2O)C(O)C(O)C1O` (stereo not drawn), the LC retention time is 3.92 min.

For `NC(CCCCNC(=O)C=Cc1ccc(O)c(O)c1)C(=O)O` (stereo not drawn), the LC retention time was 2.61 min. On to `CC1(C)CCC2(C(=O)OC3OC(CO)C(O)C(O)C3O)C(O)CC3(C)C(=CCC4C5(C)CCC(OC6OCC(O)C(OC7OC(CO)C(O)C(O)C7O)C6O)C(C)(C)C5CCC43C)C2C1` (stereo not drawn), for which the LC retention time is 6.06 min. As for `OCC1OC(Oc2cc3c(O)cc(O)cc3[o+]c2-c2cc(O)c(O)c(O)c2)C(OC2OCC(O)C(O)C2O)C(O)C1O` (stereo not drawn), the LC retention time was 2.65 min.

On to `O=C(O)CCCCCCCC(=O)O`, for which the LC retention time was 4.78 min.

As for `COc1cc(C=CC(=O)OC(CC(=O)O)C(=O)O)cc(OC)c1O` (stereo not drawn), the LC retention time was 4.23 min. Then `CC1OC(OCC2OC(Oc3c(-c4ccc(O)c(O)c4)oc4cc(O)cc(O)c4c3=O)C(OC3OCC(O)C(O)C3O)C(O)C2O)C(O)C(O)C1O` (stereo not drawn), with 3.65 min; and `O=c1c(OC2OC(CO)C(O)C(O)C2O)c(-c2ccc(O)c(O)c2)oc2cc(O)cc(O)c12` (stereo not drawn), with 4.03 min; and `O=c1ccn(C2OC(CO)C(O)C2O)c(=O)[nH]1` (stereo not drawn), with 1.8 min. The figure for `CCCCCCCCC=CCCCCCCCC(=O)OCC(O)COP(=O)([O-])OCC[N+](C)(C)C` (stereo not drawn) is 10.1 min.

Turning to `O=C(O)C1CCC(=O)N1CC1(O)OC(CO)C(O)C1O` (stereo not drawn), the LC retention time was 1.77 min. For `C=C1C2CC3(C1O)C1CC4C5(C)CCC(O)C4(C1N(CC)C5)C3CC2O` (stereo not drawn), the LC retention time is 3.05 min.

Regarding `O=C1NCC(=O)N2CCCC12` (stereo not drawn), the LC retention time was 2.06 min. Then `COc1ccc2c(c1)OC(OC1OC(CO)C(O)C(O)C1O)C(=O)N2OC` (stereo not drawn), with 4.1 min; and `CC=C1CC(C)C(O)(CO)C(=O)OCC2=CCN3CCC(OC1=O)C23` (stereo not drawn), with 3.23 min; and `OCC=Cc1ccc(O)cc1`, with 3.76 min. As to `COc1cc(-c2cc(=O)c3c(O)cc(OC4OC(C(=O)O)C(O)C(O)C4O)cc3o2)cc(OC)c1O` (stereo not drawn), the LC retention time is 4.54 min. Then `O=c1c(OC2OC(CO)C(O)C(O)C2O)c(-c2ccc(O)cc2)oc2cc(O)cc(O)c12` (stereo not drawn), with 4.37 min; and `CC1OC(OC2CCC3(C)C(CCC4(C)C3C=CC3=C5CC(C)(C)CCC5(CO)C(O)CC34C)C2(C)CO)C(O)C(OC2OC(CO)C(O)C(O)C2O)C1O` (stereo not drawn), with 7.11 min.

Regarding `CCCCCCCCCCCCCCC(O)C(O)C(N)CO` (stereo not drawn), the LC retention time is 7.82 min. For the molecule `CC(C)C(N)C(=O)NC(C(=O)O)C(C)C` (stereo not drawn), the LC retention time is 2.15 min. The figure for `C=CC1C(OC2OC(CO)C(O)C(O)C2O)OC=C2C(=O)OCCC21O` (stereo not drawn) is 3.2 min; for `COc1ccc(-c2cc(=O)c3c(O)cc(OC4OC(C(=O)O)C(O)C(O)C4O)cc3o2)cc1O` (stereo not drawn) it is 4.6 min; for `O=C(C=Cc1ccc(O)c(O)c1)c1ccc(OC2OC(CO)C(O)C(O)C2O)c(O)c1O` (stereo not drawn) it is 4.1 min.

Consider `O=C1CC(c2ccc(O)c(O)c2)Oc2c1c(OC1OC(CO)C(O)C(O)C1O)cc(O)c2C1OCC(O)C(O)C1O` (stereo not drawn), for which the LC retention time was 3.22 min.

For `Cc1c2ccncc2c(C)c2c1[nH]c1ccccc12`, the LC retention time was 4.93 min. As to `C[n+]1cc2c3c(ccc2c2ccc4cc5c(cc4c21)OCO5)OCO3`, the LC retention time is 4.85 min.

Regarding `CC(C)C(O)(C(=O)OCC1CC[N+]2([O-])CCCC12)C(C)O` (stereo not drawn), the LC retention time was 3.11 min.

With `CC(=O)OC1C(C(=O)O)OC(OC2C(O)C(O)OC(CO)C2O)C(O)C1OC1OC(CO)C(O)C(O)C1O` (stereo not drawn), the LC retention time was 5.48 min. The figure for `CCCCCC=CC=CC(O)CCCCCCCC(=O)O` (stereo not drawn) is 9.79 min; for `CCCCCC(O)C(O)CC=CCCCCCCCC(=O)O` (stereo not drawn) it is 8.39 min; for `COc1cc2ccc(=O)oc2c(OC)c1O` it is 4.28 min. Consider `CCCCCCCCCCCCCCCC(=O)OCC(O)COP(=O)(O)OCCN` (stereo not drawn), for which the LC retention time was 10 min. Then `O=C1CC(c2ccccc2O)Oc2ccccc21` (stereo not drawn), with 7.45 min; and `COc1ccc(C2CC(=O)c3c(O)cc(O)cc3O2)cc1O` (stereo not drawn), with 6.04 min; and `OCC1OC(OCC2OC(O)(CO)C(O)C2O)C(O)C(O)C1O` (stereo not drawn), with 1.74 min. For the molecule `CC1OC(OC2C(OC3C(OC4CCC5(C)C(CCC6(C)C5CC=C5C7CC(C)(C)CC(OC(=O)CC(=O)O)C7(C)CCC56C)C4(C)CO)OC(C(=O)O)C(O)C3O)OC(CO)C(O)C2O)C(O)C(O)C1O` (stereo not drawn), the LC retention time is 6.73 min. Take `CCN1CC2(COC)C(OC(C)=O)CC(OC)C34C5CC6(O)C(OC)C(O)C(OC(C)=O)(C5C6OC(=O)c5ccccc5)C(C(OC)C23)C14` (stereo not drawn): the LC retention time is 6.17 min. The figure for `CC=CS(=O)CC(NC=C1OCC(O)C(O)C1O)C(=O)O` (stereo not drawn) is 1.86 min.

`CC(C)C(NC(=O)Cc1c[nH]c2ccccc12)C(=O)O` (stereo not drawn): the LC retention time is 5.61 min. Then `O=C(C=Cc1ccc(O)cc1)OC1C(OC2C(Oc3ccc(-c4cc(=O)c5c(O)cc(O)cc5o4)cc3)OC(C(=O)O)C(O)C2O)OC(C(=O)O)C(O)C1O` (stereo not drawn), with 4.77 min. The figure for `CS(=O)CCCCCCCCC#N` (stereo not drawn) is 3.03 min.

For the molecule `COc1cc(-c2cc(=O)c3c(O)cc(OC4OC(CO)C(O)C(O)C4OC4OC(C)C(O)C(O)C4O)cc3o2)cc(OC)c1O` (stereo not drawn), the LC retention time was 4.36 min. Then `C=C1CC(=CC)C(=O)OC2CCN3CC=C(COC(=O)C1(C)O)C23` (stereo not drawn), with 3.45 min; and `NCCc1c[nH]c2ccccc12`, with 1.79 min.

On to `COc1cc(C=CC(=O)OCC2OC(OC3C(c4c(O)cc5oc(-c6ccc(O)c(OC)c6)cc(=O)c5c4O)OC(CO)C(O)C3O)C(O)C(O)C2O)ccc1O` (stereo not drawn), for which the LC retention time was 4.19 min. In the case of `CSCC(NC(=O)CCC(N)C(=O)O)C(=O)O` (stereo not drawn), the LC retention time was 2.02 min.
